# From patent US20210255193A1, “LYSINE REACTIVE PROBES AND USES THEREOF” (The Scripps Research Institute, priority 2017, published 2021)
# Molecular target: T1, NONO Non-POU domain-containing octamer-binding protein (Homo sapiens, UniProt Q15233)
# T1 construct: isoTOP-ABPP experiments performed in cell lysates (in vitro); endogenous in cells; host or cells: soluble proteome of human cancer cell lines (MDA-MB-231; Ramos and Jurkat also prepared)
# T1 sequence (Q15233 1-471): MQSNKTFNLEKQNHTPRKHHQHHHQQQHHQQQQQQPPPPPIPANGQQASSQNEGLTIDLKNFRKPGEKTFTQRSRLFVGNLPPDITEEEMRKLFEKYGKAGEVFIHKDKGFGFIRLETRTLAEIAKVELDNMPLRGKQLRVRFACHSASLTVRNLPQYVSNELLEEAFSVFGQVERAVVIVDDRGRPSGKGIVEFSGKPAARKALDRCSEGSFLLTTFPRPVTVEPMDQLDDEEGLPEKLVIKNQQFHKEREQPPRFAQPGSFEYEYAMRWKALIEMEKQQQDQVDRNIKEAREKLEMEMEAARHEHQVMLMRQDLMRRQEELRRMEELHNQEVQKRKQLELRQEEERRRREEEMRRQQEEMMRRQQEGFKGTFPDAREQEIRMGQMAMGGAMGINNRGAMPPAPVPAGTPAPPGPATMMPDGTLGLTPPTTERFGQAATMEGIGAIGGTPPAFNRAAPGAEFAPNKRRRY
# Assay: competitive isoTOP-ABPP
# Conditions: 50 uM, 231 sol, in vitro
# Method in brief: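 Fragments at 50 μM (activated esters) or 100 μM (guanidinylating agents) were incubated with 0.5 ml lysate before probe labeling. After 0.1 mM STP-alkyne for 1 h, samples were clicked to isotopically distinct TEV tags, and R taken as DMSO-over-compound MS1 peak-area ratio.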
row,SMILES,isoTOP-ABPP reactivity ratio at lysine Q15233_K467
1,"O=C(Oc1c(F)c(F)c(F)c(F)c1F)C1CCN(C(=O)OCc2ccccc2)CC1 [fragment 24, 1-Benzyl 4-(pentafluorophenyl) piperidine-1,4-dicarboxylate]",1.0
2,"O=C(Oc1ccc([N+](=O)[O-])cc1[N+](=O)[O-])c1cc(C(F)(F)F)cc(C(F)(F)F)c1 [fragment 31, 2,4-Dinitrophenyl 3,5-bis(trifluoromethyl)benzoate]",1.3
3,"Cn1cc(CC(=O)Oc2ccc([N+](=O)[O-])cc2[N+](=O)[O-])c2ccccc21 [fragment 32, 2,4-Dinitrophenyl 2-(1-methyl-1H-indol-3-yl)acetate]",1.2
4,"COc1cc(CCC(=O)Oc2ccc([N+](=O)[O-])cc2[N+](=O)[O-])cc(OC)c1OC [fragment 33, 2,4-Dinitrophenyl 3-(3,4,5-trimethoxyphenyl)propanoate]",3.7

# Same assay, conditions: 50 uM, in vitro, sol, 231
row,SMILES,isoTOP-ABPP ratio (R) at liganded lysine Q15233_K467
1,"O=C(Oc1ccc([N+](=O)[O-])cc1[N+](=O)[O-])c1ccc(-c2ccccc2)cc1 [fragment 37, 2,4-Dinitrophenyl [1,1′-biphenyl]-4-carboxylate]",0.8
2,"O=C(Oc1ccc([N+](=O)[O-])cc1[N+](=O)[O-])c1ccccc1Nc1cccc(C(F)(F)F)c1 [fragment 40, 2,4-Dinitrophenyl 2-((3-(trifluoromethyl)phenyl)amino)benzoate]",4.1
3,"O=C(Oc1ccc([N+](=O)[O-])cc1[N+](=O)[O-])C(c1ccccc1)(c1ccccc1)c1ccccc1 [fragment 42, 2,4-Dinitrophenyl 2,2,2-triphenylacetate]",2.5
4,"CC(=O)Oc1ccc([N+](=O)[O-])cc1[N+](=O)[O-] [fragment 43, 2,4-Dinitrophenyl acetate]",3.1

# Same assay, conditions: 50 uM_231_sol_in vitro
row,SMILES,"isoTOP-ABPP ratio, lysine Q15233_K467"
1,"N#Cc1ccc(C(=O)Oc2ccc([N+](=O)[O-])cc2[N+](=O)[O-])cc1 [fragment 44, 2,4-Dinitrophenyl 4-cyanobenzoate]",0.9
2,"O=C(ON1C(=O)CCC1=O)c1cc(C(F)(F)F)cc(C(F)(F)F)c1 [fragment 46, 3,5-Bis(trifluoromethyl)benzoic acid NHS ester]",0.4

# Same assay, conditions: 100 uM_231_sol_in vitro
row,SMILES,"isoTOP-ABPP ratio, lysine Q15233_K467"
1,"COC(=O)NC(=NC(=O)OCC1c2ccccc2-c2ccccc21)n1cccn1 [fragment 49, N-Methoxycarbonyl-N′-9-fluorenylmethoxycarbonyl-pyrazole-1-carboxamidine]",4.9

# Same assay, conditions: Q15233_K467; 50 uM, 231 sol, in vitro
row,SMILES,R value (DMSO/fragment) for probe 1 labeling
1,"O=C(Oc1c(F)c(F)c(F)c(F)c1F)C(c1ccccc1)c1ccccc1 [fragment 20, Pentafluorophenyl 2,2-diphenylacetate]",1.2
2,"O=C(Oc1c(F)c(F)c(F)c(F)c1F)c1cc(C(F)(F)F)cc(C(F)(F)F)c1 [fragment 21, Pentafluorophenyl 3,5-bis(trifluoromethyl)benzoate]",1.5

# Molecular target: T2, TTR (Homo sapiens, UniProt P02766)
# T2 construct: made in house; host or cells: E. coli
# Assay: direct labeling of recombinantly expressed proteins by gel-based ABPP (WT vs lysine mutant)
# Type: binding
# Conditions: TTR K35, KA mutant; 1 μM TTR in MDA-MB-231 lysate
# Text: Subcloning and mutagenesis. Unless noted below, genes were amplified from cDNA prepared from low passage HEK 293T cells using the Ribozol RNA extraction reagent (Amresco) and the iScript Reverse Transcription Supermix kit (Bio-Rad). For the following proteins cDNA clones were used for amplification instead: PFKP (5180268, Dharmacon), HK1 (BC008730, transomic), SIN3A (BC137098, transomic), G6PD (BC000337, transomic) and TGIF1 (BC031268, transomic). Mouse CARM1 in pFLAG-CMV-6c was a kind gift from the Mowen lab (TSRI). NUDT2 was obtained as synthesized gene (IDT). DNA was amplified with custom forward and reverse primers using phusion polymerase (NEB, M0530S), digested with the indicated restriction enzyme and ligated into pFLAG-CMV-6c or pRK5 with the appropriate affinity tag. Lysine mutants were generated using QuikChange site-directed mutagenesis using Phusion® High-Fidelity DNA Polymerase and primers containing the desired mutations and their respective complements. The cloning of TTR and its K35A mutant has been described in Choi et al., “Chemoselective small molecules that covalently modify one lysine in a non-enzyme protein in plasma,” Nat. Chem. Biol. 6, 133-139 (2010). TTR was expressed in E. coli and purified as described. For gel-based experiments 1 μM TTR was added into 1 mg ml^−1 soluble MDA-MB-231 lysate.
# Direct labeling of recombinantly expressed proteins by gel-based ABPP. 50 μL of soluble HEK 293T proteome (1 mg ml^−1) expressing the respective protein (WT or KR mutant) or transfected with an empty vector were treated with 10 μM of the indicated probe for 1 h at room temperature. The samples were analyzed as described in the previous section. For quantification of relative labeling of the different protein variants, the intensity of labeling was determined by quantifying the integrated optical intensity of the bands using ImageLab 5.2.1 software (BioRad).
row,SMILES,labeling of WT vs mutant protein by probe
1,"C#CCCC(=O)Oc1c(F)c(F)c(S(=O)(=O)[O-])c(F)c1F.[Na+] [probe 1, reference compound]",HD (the WT labeled more than the mutant (>4x difference quantified))
2,"C#CCCC(=O)Oc1c(F)c(F)c(F)c(F)c1F [probe 6, Pentafluorophenyl 4-pentynoate]",HD (the WT labeled more than the mutant (>4x difference quantified))
3,"C#Cc1ccc(C(=O)Oc2ccccc2[N+](=O)[O-])cc1 [probe 10, 2-Nitrophenyl 4-ethynylbenzoate]",HD (the WT labeled more than the mutant (>4x difference quantified))
4,"C#Cc1ccc(C(=O)Oc2c(F)c(F)cc(F)c2F)cc1 [probe 12, 2,3,5,6-Tetrafluorophenyl 4-ethynylbenzoate]",HD (the WT labeled more than the mutant (>4x difference quantified))
5,"C#Cc1ccc(C(=O)Oc2c(F)c(F)c(F)c(F)c2F)cc1 [probe 13, Pentafluorophenyl 4-ethynylbenzoate]",HD (the WT labeled more than the mutant (>4x difference quantified))
6,"Cc1cc(C)n2c1C=C1C=CC(CCC(=O)Oc3c(F)c(F)c(S(=O)(=O)[O-])c(F)c3F)=[N+]1[B-]2(F)F.[Na+] [probe 18, reference compound]",HD (the WT labeled more than the mutant (>4x difference quantified))
